Results published in patent US20250186646A1, “Use of Volatile Compositions to Limit or Eliminate Perception of Fecal Malodour” (Firmenich SA, priority 2016, published 2025).

Key:
p-cresol = assay: Reduction of perceived intensity of p-cresol by MOCs (Table 16); type: in vivo; settings: for p-cresol Dyn Conc: concentration at which the MOC reduces the perceived intensity of p-cresol; for p-cresol Reduction: perceived intensity of p-cresol, at the Dyn Conc
butyric acid = assay: Reduction of perceived intensity of butyric acid by MOCs (Table 16); type: in vivo; settings: for Butyric acid Dyn Conc: concentration at which the MOC reduces the perceived intensity of butyric acid; for Butyric acid Reduction: perceived intensity of butyric acid, at the Dyn Conc
indole = assay: Reduction of perceived intensity of indole by MOCs (Table 16); type: in vivo; settings: for Indole Dyn Conc: concentration at which the MOC reduces the perceived intensity of indole; for Indole Reduction: perceived intensity of indole, at the Dyn Conc
DMTS = assay: Reduction of perceived intensity of DMTS by MOCs (Table 16); type: in vivo; settings: for DMTS Dyn Conc: concentration at which the MOC reduces the perceived intensity of DMTS; for DMTS Reduction: perceived intensity of DMTS, at the Dyn Conc
[1] = Olfactory detection thresholds (ODT); settings: gas phase
[2] = tested on: fecal malodour reconstitution; assay: Olfactometer blind sensory evaluation of test and control formulations (Example 15); type: in vivo; parameters: Fecal Score / Freshness Score / Pleasantness Score: scale not given here; settings: for Fecal Score: in combination with fecal reconstitution; for Fecal Score left: relative to fecal reconstitution alone (100)
Description: (§1) The performance of a test formulation containing LILYFLORE, Violet AT and Isoraldeine to counteract the fecal malodour perceived from a fecal malodour reconstitution was tested. The amount of each single ingredient in the test formulation was the same as the corresponding concentration of the ingredient that was incorporated into the Floral compositions. Separate control formulations were also included, comprising LILYFLORE, Violet AT and Isoraldeine separately, at the same concentration as each single ingredient in the test formulation. The sensory evaluation was blind, and performed using olfactometers and a set of more than 30 participants evaluating blind. In parallel, the headspace concentration of the ingredients from the test and three control formulations was determined.
as §1, with “of another” for “of a”, “and dihydrolinalol” for “and Isoraldeine”, “tested.” for “tested. The amount of each single ingredient in the test formulation was the same as the corresponding concentration of the ingredient that was incorporated into the Floral compositions.”
The performance of another test formulation containing LILYFLORE, isoraldeine, Violet AT and dihydrolinalol to counteract the fecal malodour perceived from a fecal malodour reconstitution was tested. Separate control formulations were also included, comprising LILYFLORE, Violet AT, isoraldeine and dihydrolinalol separately, at the same concentration as each single ingredient in the test formulation. The sensory evaluation was blind, and performed using olfactometers and a set of more than 30 participants evaluating blind. In parallel, the headspace concentration of the ingredients from the test and […] control formulations was determined.

butyric acid receptors = assay: Ex vivo live neuron assay antagonism screening; type: cell-based, mice; settings: butyric acid malodour target
Text: In the ex vivo live neuron assay, olfactory sensory neurons (OSNs) are extracted from the olfactory epithelium of mice and can be tested for responses to sequentially delivered stimuli, where responses are detected through live-cell calcium-imaging microscopy. It has been established through prior research in the field that the vast majority of extracted OSNs express 1 out of the approximately 1200 odourant receptors (ORs) present in the genome of a mouse, such that in our samples of extracted OSNs, the majority of the 1200 ORs should have been represented in at least one OSN. Since the responses of the OSNs to the delivered stimuli are entirely driven by the expressed OR, the OSNs selectively detect and collectively encode the identity and intensity of odourants. By stimulating the OSNs with MO molecules and measuring the response of each OSN, the subset in which a response is induced is those that detect and therefore presumably encode the MO. By subsequently delivering a mixture of MO and a candidate antagonist to the same cells, the degree of suppression of signal in each MO-responsive OSN can be determined (“level of inhibition”). […] In addition, the proportion of MO-responsive OSNs displaying low, medium and high inhibition was calculated. […]

| Molecule | p-cresol Dyn Conc (p-cresol) [µg/L] | p-cresol Reduction (p-cresol) | Butyric acid Dyn Conc (butyric acid) [µg/L] | Butyric acid Reduction (butyric acid) | Indole Dyn Conc (indole) [µg/L] | Indole Reduction (indole) | DMTS Dyn Conc (DMTS) [µg/L] | DMTS Reduction (DMTS) | olfactory detection thresholds (ODT) [1] [µg/L] | Fecal % Redn ([2]; Table 20) [%] | Freshness Score ([2]; Table 20) | Pleasantness Score ([2]; Table 20) | Fecal Score ([2]; Table 20) | Fecal Score left ([2]; Table 20) | also measured |
| --- | --- | --- | --- | --- | --- | --- | --- | --- | --- | --- | --- | --- | --- | --- | --- |
| C/C=C/C(=O)C1C(C)=CCCC1(C)C (racemic) [Alpha damascone, (+−)-(2E)-1-(2,6,6-trimethyl-2-cyclohexen-1-yl)-2-buten-1-one] | 0.0413 | 62 | 0.041 | 43 |  |  |  |  |  |  |  |  |  |  |  |
| CC(C)=CCCC(C)CCO (racemic) [Citronellol BJ, (+−)-3,7-DIMETHYL-6-OCTEN-1-OL] | 0.11 | 61 | 0.0947 | 55 | 0.252 | 65 |  |  |  |  |  |  |  |  |  |
| CCCCCC1CCCC1=O (racemic) [Delphone, (+−)-2-pentylcyclopentanone] | 0.0488 | 64 |  |  |  |  | 0.046 | 67 |  |  |  |  |  |  |  |
| C=CC(C)(O)CCCC(C)C (racemic) [Dihydrolinalol, (+−)-3,7-DIMETHYL-1-OCTEN-3-OL] |  |  | 0.76 | 64 |  |  |  |  | 0.00137 | 30 | 3.2 | 3.2 | 6.1 | 70 | Fecal % Redn ([2]; Table 19): 35%; Freshness Score ([2]; Table 19): 3.9; Pleasantness Score ([2]; Table 19): 3.5; Fecal Score ([2]; Table 19): 5.6; Fecal Score left ([2]; Table 19): 65; antagonism of malodour receptors (butyric acid receptors): antagonist of butyric acid receptors |
| Cc1ccc2c(c1)CC(C)(CO)C2 (racemic) [LILYFLORE, (+−)-2,5-DIMETHYL-2-INDANMETHANOL] | 0.22 | 76 | 0.0351 | 58 | 0.206 | 81 | 0.126 | 64 | 0.000128 | 45 | 3.9 | 3.8 | 4.8 | 55 | Fecal % Red ([2]; Table 18): 56%; Freshness Score ([2]; Table 18): 4.4; Pleasantness Score ([2]; Table 18): 4.8; Fecal Score ([2]; Table 18): 3.8; Fecal Score left ([2]; Table 18): 44; Fecal % Redn ([2]; Table 19): 45%; Freshness Score ([2]; Table 19): 4.0; Pleasantness Score ([2]; Table 19): 4.1; Fecal Score ([2]; Table 19): 4.7; Fecal Score left ([2]; Table 19): 55 |
| CC(=O)OC(c1ccccc1)C(Cl)(Cl)Cl (racemic) [Rosinol Cryst, (+−)-2,2,2-TRICHLORO-1-PHENYLETHYL ACETATE] |  |  |  |  |  |  | 0.659 | 38 |  |  |  |  |  |  |  |
| CC(=O)OCc1ccccc1 [Benzyl acetate, Benzyl Acetate] |  |  | 1.31 | 54 |  |  |  |  |  |  |  |  |  |  |  |
| CCCCCC/C(C=O)=C\c1ccccc1 [Hexylcinnamic aldehyde, (2E)-2-benzylideneoctanal] | 1.34 | 39 | 1.34 | 26 |  |  |  |  |  |  |  |  |  |  |  |
| OCCc1ccccc1 [Phenylethyl alcohol, 2-PHENYLETHANOL] | 0.318 | 49 |  |  | 0.538 | 46 | 1.03 | 55 |  |  |  |  |  |  |  |
| (1RS,2RS)-2,4-dimethyl-3-cyclohexene-1-carbaldehyde (A) + (1RS,2SR)-2,4-dimethyl-3-cyclohexene-1-carbaldehyde (B) [Zestover] | 0.0607 | 66 | 0.0809 | 68 | 0.348 | 82 | 0.38 | 78 |  |  |  |  |  |  |  |
| (+−)-(3E)-3-methyl-4-(2,6,6-trimethyl-2-cyclohexen-1-yl)-3-buten-2-one (A) + (+−)-(1E)-1-(2,6,6-trimethyl-2-cyclohexen-1-yl)-1-penten-3-one (B) [Isoraldeine 70P] | 0.0674 | 49 | 0.0674 | 25 | 0.542 | 79 | 0.216 | 69 | 0.000192 | 49 | 4.6 | 4.5 | 4.4 | 51 | Fecal % Red ([2]; Table 18): 58%; Freshness Score ([2]; Table 18): 4.8; Pleasantness Score ([2]; Table 18): 5.1; Fecal Score ([2]; Table 18): 3.6; Fecal Score left ([2]; Table 18): 42 |
| (+−)-(3E)-4-(2,6,6-trimethyl-2-cyclohexen-1-yl)-3-buten-2-one (A) + (3E)-4-(2,6,6-trimethyl-1-cyclohexen-1-yl)-3-buten-2-one (B) [Violet AT] | 0.133 | 85 | 0.123 | 55 | 0.133 | 72 | 0.151 | 81 | 0.000508 | 44 | 4.1 | 4.2 | 4.9 | 56 | Fecal % Red ([2]; Table 18): 58%; Freshness Score ([2]; Table 18): 4.7; Pleasantness Score ([2]; Table 18): 5.0; Fecal Score ([2]; Table 18): 3.6; Fecal Score left ([2]; Table 18): 42; Fecal % Redn ([2]; Table 19): 53%; Freshness Score ([2]; Table 19): 4.5; Pleasantness Score ([2]; Table 19): 4.8; Fecal Score ([2]; Table 19): 4.1; Fecal Score left ([2]; Table 19): 47 |
